Source: patent publication US5571808A, “Method for treating smoking-related bone loss” (Eli Lilly and Company, priority 1995, dated 1996)

Columns and labels:
[1] = test system: ovariectomized (ovex) rats; assay: Femur bone density in ovariectomized rats (model of post-menopausal osteoporosis); type: in vivo, Sprague Dawley rats; conditions: for inhibition in vivo at 1 mg/kg: Rattus norvegicus, 840 h, 1 mg/kg oral, relative to estrogen treated and untreated ovex animals, read-out: % Inhibition of Bone Loss; for Prevention of bone loss (in words): oral, femur density
Method: A model of post-menopausal osteoporosis was used in which effects of different treatments upon femur density were determined. Seventy-five day old female Sprague Dawley rats (weight range of 225 g to 275 g) were obtained from Charles River Laboratories (Portage, Mich.). They were housed in groups of 3 and had ad libitum access to food (calcium content approximately 1%) and water. Room temperature was maintained at 22.2°±1.7° C. with a minimum relative humidity of 40%. The photoperiod in the room was 12 hours light and 12 hours dark.
The right femurs were excised and scanned at the distal metaphysis 1 mm from the patellar groove with single photon absorptiometry. Results of the densitometer measurements represent a calculation of bone density as a function of the bone mineral content and bone width.
Results are reported as the mean of measurements from thirty rats ± the standard error of the mean.
Accordingly, each point reflects the responses of thirty rats and depicts a typical dose response curve for raloxifene in this model. Results are reported as the mean ± the standard error of the mean.
Other compounds of formula I were administered orally in the rat assay described in Example 1.

[2] = test system: bone loss in postmenopausal women; conditions: cited from earlier work

Compound | inhibition in vivo at 1 mg/kg [1] [%] | Prevention of bone loss (in words) [1] | other results
O=C(c1ccc(OCCN2CCCC2)cc1)c1c(-c2ccc(O)cc2)sc2cc(O)ccc12 [Compound 16] | 25 |  | 
O=C(c1ccc(OCCN2CCCCC2)cc1)c1c(-c2ccc(O)cc2)sc2cc(O)ccc12 [raloxifene, 6-hydroxy-2-(4-hydroxyphenyl)-3-[4-(2-piperidinoethoxy)benzoyl]benzo[b]thiophene] |  | prevented bone loss in a dose dependent manner | 
C#C[C@]1(O)CC[C@H]2[C@@H]3CCc4cc(O)ccc4[C@H]3CC[C@@]21C [EE2, ethynyl estradiol] |  | prevented this loss of bone in a dose dependent manner | 
estrogen |  |  | Disorders implicated in long-term estrogen therapy (in words) ([2]; long-term therapy, postmenopausal women): increased risk of uterine and breast cancer; Protective effects of estrogen therapy on bone (in words) ([2]; women smokers (Kiel et al.)): eliminated for women smokers
COc1ccc(-c2sc3cc(OC)ccc3c2C(=O)c2ccc(OCCN3CCCCC3)cc2)cc1 [Compound 18] | 26 |  | 
O=C(Oc1ccc(-c2sc3cc(OC(=O)c4ccccc4)ccc3c2C(=O)c2ccc(OCCN3CCCCC3)cc2)cc1)c1ccccc1 [Compound 12] | 60 |  | 
